From the supplement of paper PMC10307832

How the values were obtained:
Assay in all cases: relative viability (nuclei count vs DMSO), 5 days (fraction); higher = more cells survive
[1] = test system: NCI-H1651
Method in brief: (§1)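 The day after seeding in 1536-well plates, lung cancer cell lines were treated by pin tool with a single drug, or with a fixed anchor-drug dose together with five library-drug doses (not always all listed) in √10 steps. After 5 days, a combined fix-and-stain solution (final 0.05% Triton X-100, 1% formaldehyde, 1 ug/ml Hoechst) was added. Nuclei counted on 4× images gave relative viability as treated counts over vehicle counts, reported as the median of duplicate plates.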

[2] = test system: H3255
Method in brief: as §1

[3] = test system: NCI-H838
Method in brief: as §1

[4] = test system: NCI-H647
Method in brief: as §1

[5] = test system: NCI-H1793
Method in brief: as §1

[6] = test system: NCI-H522
Method in brief: as §1

[7] = test system: NCI-H650
Method in brief: as §1

[8] = test system: HARA
Method in brief: as §1

[9] = test system: NCI-H322M
Method in brief: as §1

[10] = test system: NCI-H441
Method in brief: as §1

[11] = test system: HCC-15
Method in brief: as §1

[12] = test system: NCI-H1395
Method in brief: as §1

[13] = test system: LC-2-ad
Method in brief: as §1

[14] = test system: NCI-H1915
Method in brief: as §1

[15] = test system: NCI-H2085
Method in brief: as §1

[16] = test system: NCI-H2347
Method in brief: as §1

[17] = test system: UMC-11
Method in brief: as §1

[18] = test system: NCI-H661
Method in brief: as §1

[19] = test system: HCC-366
Method in brief: as §1

[20] = test system: NCI-H2170
Method in brief: as §1

[21] = test system: LXF-289
Method in brief: as §1

[22] = test system: LOU-NH91
Method in brief: as §1

[23] = test system: CAL-12T
Method in brief: as §1

[24] = test system: SK-MES-1
Method in brief: as §1

[25] = test system: BEN
Method in brief: as §1

SMILES: Nc1cccc2c1CN(C1CCC(=O)NC1=O)C2=O (configuration not stated) [Lenalidomide] + O=C(CCCCCCC(=O)Nc1ccccc1)NO [Vorinostat] (partner 1 µM)
- relative viability ([1]; first compound 0.253 µM): 0.624
- relative viability ([1]; first compound 0.8 µM): 0.471
- relative viability ([1]; first compound 2.53 µM): 0.589
- relative viability ([1]; first compound 8 µM): 0.579
- relative viability ([2]; first compound 0.253 µM): 0.716
- relative viability ([2]; first compound 0.8 µM): 0.515
- relative viability ([2]; first compound 2.53 µM): 0.823
- relative viability ([2]; first compound 8 µM): 0.862
- relative viability ([3]; first compound 0.253 µM): 0.732
- relative viability ([3]; first compound 0.8 µM): 0.692
- relative viability ([3]; first compound 2.53 µM): 0.712
- relative viability ([3]; first compound 8 µM): 0.697
- relative viability ([4]; first compound 0.253 µM): 0.415
- relative viability ([4]; first compound 0.8 µM): 0.68
- relative viability ([4]; first compound 2.53 µM): 0.525
- relative viability ([4]; first compound 8 µM): 0.653
- relative viability ([5]; first compound 0.253 µM): 0.739
- relative viability ([5]; first compound 2.53 µM): 1.02
- relative viability ([5]; first compound 8 µM): 0.35
- relative viability ([6]; first compound 0.253 µM): 0.767
- relative viability ([6]; first compound 0.8 µM): 0.86
- relative viability ([6]; first compound 2.53 µM): 1.09
- relative viability ([6]; first compound 8 µM): 0.781
- relative viability ([7]; first compound 0.253 µM): 0.492
- relative viability ([7]; first compound 0.8 µM): 0.446
- relative viability ([7]; first compound 2.53 µM): 0.59
- relative viability ([7]; first compound 8 µM): 0.322
- relative viability ([8]; first compound 0.253 µM): 0.61
- relative viability ([8]; first compound 2.53 µM): 0.628
- relative viability ([8]; first compound 8 µM): 0.512
- relative viability ([9]; first compound 0.253 µM): 0.934
- relative viability ([9]; first compound 0.8 µM): 0.907
- relative viability ([9]; first compound 2.53 µM): 0.962
- relative viability ([9]; first compound 8 µM): 0.986
- relative viability ([10]; first compound 0.253 µM): 0.77
- relative viability ([10]; first compound 0.8 µM): 0.757
- relative viability ([10]; first compound 2.53 µM): 0.863
- relative viability ([10]; first compound 8 µM): 0.944
- relative viability ([11]; first compound 0.253 µM): 0.826
- relative viability ([11]; first compound 0.8 µM): 0.855
- relative viability ([11]; first compound 2.53 µM): 0.917
- relative viability ([11]; first compound 8 µM): 0.795
- relative viability ([12]; first compound 0.253 µM): 0.807
- relative viability ([12]; first compound 2.53 µM): 0.736
- relative viability ([12]; first compound 8 µM): 0.567
- relative viability ([13]; first compound 0.253 µM): 0.733
- relative viability ([13]; first compound 0.8 µM): 0.643
- relative viability ([13]; first compound 2.53 µM): 0.718
- relative viability ([13]; first compound 8 µM): 0.735
- relative viability ([14]; first compound 0.253 µM): 0.478
- relative viability ([14]; first compound 0.8 µM): 0.482
- relative viability ([14]; first compound 2.53 µM): 0.601
- relative viability ([14]; first compound 8 µM): 0.445
- relative viability ([15]; first compound 0.253 µM): 0.826
- relative viability ([15]; first compound 0.8 µM): 0.691
- relative viability ([15]; first compound 2.53 µM): 0.799
- relative viability ([15]; first compound 8 µM): 0.624
- relative viability ([16]; first compound 0.253 µM): 0.701
- relative viability ([16]; first compound 0.8 µM): 0.611
- relative viability ([16]; first compound 2.53 µM): 0.722
- relative viability ([16]; first compound 8 µM): 0.448
- relative viability ([17]; first compound 0.253 µM): 0.441
- relative viability ([17]; first compound 0.8 µM): 0.378
- relative viability ([17]; first compound 2.53 µM): 0.428
- relative viability ([17]; first compound 8 µM): 0.381
- relative viability ([18]; first compound 0.253 µM): 0.737
- relative viability ([18]; first compound 0.8 µM): 0.828
- relative viability ([18]; first compound 2.53 µM): 0.893
- relative viability ([18]; first compound 8 µM): 0.848
- relative viability ([19]; first compound 0.253 µM): 0.335
- relative viability ([19]; first compound 0.8 µM): 0.102
- relative viability ([19]; first compound 2.53 µM): 0.479
- relative viability ([19]; first compound 8 µM): 0.265
- relative viability ([20]; first compound 0.253 µM): 0.883
- relative viability ([20]; first compound 0.8 µM): 0.649
- relative viability ([20]; first compound 2.53 µM): 0.889
- relative viability ([20]; first compound 8 µM): 0.626
- relative viability ([21]; first compound 0.253 µM): 0.812
- relative viability ([21]; first compound 0.8 µM): 0.625
- relative viability ([21]; first compound 2.53 µM): 0.798
- relative viability ([21]; first compound 8 µM): 0.838
- relative viability ([22]; first compound 0.253 µM): 0.928
- relative viability ([22]; first compound 0.8 µM): 0.753
- relative viability ([22]; first compound 2.53 µM): 0.98
- relative viability ([22]; first compound 8 µM): 0.817
- relative viability ([23]; first compound 0.253 µM): 0.874
- relative viability ([23]; first compound 0.8 µM): 0.887
- relative viability ([23]; first compound 2.53 µM): 0.999
- relative viability ([23]; first compound 8 µM): 0.907
- relative viability ([24]; first compound 0.253 µM): 0.99
- relative viability ([24]; first compound 0.8 µM): 0.881
- relative viability ([24]; first compound 2.53 µM): 1.19
- relative viability ([24]; first compound 8 µM): 1.06
- relative viability ([25]; first compound 0.253 µM): 0.559
- relative viability ([25]; first compound 0.8 µM): 0.5
- relative viability ([25]; first compound 2.53 µM): 0.617
- relative viability ([25]; first compound 8 µM): 0.545
